# Laboratory results reported in ChEMBL document CHEMBL1135773, “Purine and pyrimidine (P2) receptors as drug targets” (J Med Chem, 2002).
# What was measured:
# P2X purinoceptor 3 [1] = target: T1, P2X purinoceptor 3 (Homo sapiens, UniProt P56373); assay: The compound was evaluated for antagonist activity against recombinant human P2X purinoceptor 3 (P2X3 ); format: functional
# T1 sequence (P56373 whole entry): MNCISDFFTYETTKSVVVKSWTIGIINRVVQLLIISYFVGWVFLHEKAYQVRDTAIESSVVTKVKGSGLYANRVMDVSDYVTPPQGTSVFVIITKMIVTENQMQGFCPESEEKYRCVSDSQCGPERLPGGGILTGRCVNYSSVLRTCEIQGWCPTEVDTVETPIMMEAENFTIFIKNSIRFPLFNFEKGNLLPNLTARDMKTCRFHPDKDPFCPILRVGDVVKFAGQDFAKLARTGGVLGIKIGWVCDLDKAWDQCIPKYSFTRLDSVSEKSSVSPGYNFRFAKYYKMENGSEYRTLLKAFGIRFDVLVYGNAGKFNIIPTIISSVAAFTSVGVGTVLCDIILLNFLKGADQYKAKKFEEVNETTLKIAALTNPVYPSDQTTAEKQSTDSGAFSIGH
# P2X purinoceptor 1 [2] = target: T2, P2X purinoceptor 1 (Rattus norvegicus, UniProt P47824); assay: The compound was evaluated for antagonist activity against recombinant rat P2X purinoceptor 1 (P2X1); format: functional
# T2 sequence (P47824 whole entry): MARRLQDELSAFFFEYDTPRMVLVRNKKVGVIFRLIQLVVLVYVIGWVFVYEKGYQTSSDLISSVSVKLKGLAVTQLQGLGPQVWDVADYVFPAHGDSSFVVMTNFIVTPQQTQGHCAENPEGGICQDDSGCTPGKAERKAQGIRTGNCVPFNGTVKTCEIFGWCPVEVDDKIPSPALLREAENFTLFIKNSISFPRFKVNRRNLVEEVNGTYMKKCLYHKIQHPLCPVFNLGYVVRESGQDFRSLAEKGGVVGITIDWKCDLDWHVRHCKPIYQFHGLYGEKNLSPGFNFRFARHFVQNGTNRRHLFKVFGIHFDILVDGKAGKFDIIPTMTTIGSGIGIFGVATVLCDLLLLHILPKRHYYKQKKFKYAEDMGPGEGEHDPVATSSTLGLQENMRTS
# P2X purinoceptor 7 = target: T3, P2X purinoceptor 7 (Homo sapiens, UniProt Q99572); assay: Antagonist activity against recombinant human P2X purinoceptor 7 (P2X7); format: functional
# T3 sequence (Q99572 whole entry): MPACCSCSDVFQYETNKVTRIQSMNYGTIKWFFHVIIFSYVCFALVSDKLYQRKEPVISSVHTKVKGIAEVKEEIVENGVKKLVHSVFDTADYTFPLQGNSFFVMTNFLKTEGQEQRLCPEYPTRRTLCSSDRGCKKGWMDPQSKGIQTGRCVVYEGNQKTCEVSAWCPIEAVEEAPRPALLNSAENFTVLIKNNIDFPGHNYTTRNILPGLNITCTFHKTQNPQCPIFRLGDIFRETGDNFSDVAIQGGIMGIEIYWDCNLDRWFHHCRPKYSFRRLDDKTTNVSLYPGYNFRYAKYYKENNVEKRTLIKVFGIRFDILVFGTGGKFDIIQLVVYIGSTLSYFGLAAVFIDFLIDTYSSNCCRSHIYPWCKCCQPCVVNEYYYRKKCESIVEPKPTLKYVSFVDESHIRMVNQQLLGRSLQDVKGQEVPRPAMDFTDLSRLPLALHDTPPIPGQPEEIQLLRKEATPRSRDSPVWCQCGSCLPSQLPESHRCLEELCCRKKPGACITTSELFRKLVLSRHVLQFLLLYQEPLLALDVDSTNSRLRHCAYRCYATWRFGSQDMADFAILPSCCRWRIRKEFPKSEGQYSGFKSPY
# P2X purinoceptor 4 [3] = target: T4, P2X purinoceptor 4 (Homo sapiens, UniProt Q99571); assay: Antagonist activity against recombinant human P2X purinoceptor 4 (P2X4); format: functional
# T4 sequence (Q99571 whole entry): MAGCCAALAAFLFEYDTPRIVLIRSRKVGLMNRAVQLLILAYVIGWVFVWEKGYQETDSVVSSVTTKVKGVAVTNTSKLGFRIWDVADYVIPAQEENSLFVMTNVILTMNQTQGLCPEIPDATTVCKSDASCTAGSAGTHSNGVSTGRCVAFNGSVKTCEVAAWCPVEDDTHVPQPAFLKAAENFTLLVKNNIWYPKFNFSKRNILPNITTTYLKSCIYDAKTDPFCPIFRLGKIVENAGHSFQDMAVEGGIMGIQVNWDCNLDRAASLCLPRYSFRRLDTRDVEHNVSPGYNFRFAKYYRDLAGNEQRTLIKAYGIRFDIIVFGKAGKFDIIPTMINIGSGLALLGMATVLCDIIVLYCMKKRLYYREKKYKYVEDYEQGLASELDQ
# P2Y purinoceptor 11 = target: T5, P2Y purinoceptor 11 (Homo sapiens, UniProt Q96G91); assay: Agonist activity against phospholipase C coupled human P2Y purinoceptor 11 (P2Y11); format: functional
# T5 sequence (Q96G91 whole entry): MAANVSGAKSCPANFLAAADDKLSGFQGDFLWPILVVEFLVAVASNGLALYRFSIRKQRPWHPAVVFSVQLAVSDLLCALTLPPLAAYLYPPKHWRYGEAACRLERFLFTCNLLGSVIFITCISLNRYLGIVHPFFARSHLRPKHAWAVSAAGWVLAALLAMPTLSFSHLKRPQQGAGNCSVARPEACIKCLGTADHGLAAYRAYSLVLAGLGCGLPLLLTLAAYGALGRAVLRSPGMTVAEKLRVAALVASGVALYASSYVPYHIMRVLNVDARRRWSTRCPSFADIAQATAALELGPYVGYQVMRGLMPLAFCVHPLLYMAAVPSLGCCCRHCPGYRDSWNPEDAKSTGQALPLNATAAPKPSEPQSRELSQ
# P2Y purinoceptor 4 = P2Y purinoceptor 4 (Rattus norvegicus, UniProt O35811); assay: The compound was evaluated for antagonist activity against phospholipase C coupled recombinant rat P2Y purinoceptor 4 (P2Y4); format: functional
# P2Y purinoceptor 1 = P2Y purinoceptor 1 (Homo sapiens, UniProt P47900); assay: Evaluated for agonist activity against phospholipase C coupled P2Y purinoceptor 1 (P2Y1) of human erythrocytes; format: functional
# P2Y purinoceptor 6 = P2Y purinoceptor 6 (Homo sapiens, UniProt Q15077); assay: The compound was evaluated for agonist activity against phospholipase C coupled recombinant human P2Y purinoceptor 6 (P2Y6); format: functional
# P2Y purinoceptor 2 = P2Y purinoceptor 2 (Homo sapiens, UniProt P41231); assay: Evaluated for agonist activity against phospholipase C coupled recombinant human P2Y purinoceptor 2 (P2Y2); format: functional
# P2X purinoceptor 3 [4] = target: T1, P2X purinoceptor 3; assay: Antagonist activity against recombinant human P2X purinoceptor 3 (P2X3 ); format: functional
# P2Y purinoceptor 12 = P2Y purinoceptor 12 (Rattus norvegicus, UniProt Q9EPX4); assay: Antagonist activity against phospholipase C coupled rat P2Y purinoceptor 12 (P2Y12); format: functional
# P2X purinoceptor 6 = P2X purinoceptor 6 (Rattus norvegicus, UniProt P51579); assay: Antagonist activity against recombinant rat P2X purinoceptor 6 (P2X6 ); format: functional
# P2X purinoceptor 5 = target: T6, P2X purinoceptor 5 (Rattus norvegicus, UniProt P51578); assay: Antagonist activity against recombinant rat P2X purinoceptor 5 (P2X5); format: functional
# T6 sequence (P51578 whole entry): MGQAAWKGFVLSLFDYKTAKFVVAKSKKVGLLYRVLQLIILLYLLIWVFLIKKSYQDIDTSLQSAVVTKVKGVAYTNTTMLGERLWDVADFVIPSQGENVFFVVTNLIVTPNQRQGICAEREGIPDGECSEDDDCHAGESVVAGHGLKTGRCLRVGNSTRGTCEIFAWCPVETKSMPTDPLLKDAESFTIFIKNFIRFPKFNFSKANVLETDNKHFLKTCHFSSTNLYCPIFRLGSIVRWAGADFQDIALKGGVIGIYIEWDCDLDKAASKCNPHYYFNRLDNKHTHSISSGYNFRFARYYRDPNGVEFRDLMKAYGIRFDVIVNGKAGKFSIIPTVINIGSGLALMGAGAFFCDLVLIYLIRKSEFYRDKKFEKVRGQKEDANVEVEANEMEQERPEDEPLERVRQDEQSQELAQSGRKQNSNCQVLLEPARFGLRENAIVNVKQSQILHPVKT
# P2X purinoceptor 1 [5] = target: T7, P2X purinoceptor 1 (Homo sapiens, UniProt P51575); assay: Antagonist activity against recombinant human P2X purinoceptor 1 (P2X1 ); format: functional
# T7 sequence (P51575 whole entry): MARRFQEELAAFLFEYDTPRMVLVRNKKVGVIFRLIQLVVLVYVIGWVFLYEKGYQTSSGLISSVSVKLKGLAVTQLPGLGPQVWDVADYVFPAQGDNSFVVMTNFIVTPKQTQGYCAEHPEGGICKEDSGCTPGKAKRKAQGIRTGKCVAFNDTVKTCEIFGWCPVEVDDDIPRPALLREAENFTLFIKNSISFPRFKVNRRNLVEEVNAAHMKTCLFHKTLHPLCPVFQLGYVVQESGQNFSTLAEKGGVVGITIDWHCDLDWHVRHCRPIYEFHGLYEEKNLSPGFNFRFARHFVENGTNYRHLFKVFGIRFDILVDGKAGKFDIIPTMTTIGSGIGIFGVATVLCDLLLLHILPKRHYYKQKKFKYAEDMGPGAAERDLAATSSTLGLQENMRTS
# P2X purinoceptor 4 [6] = target: T8, P2X purinoceptor 4 (Rattus norvegicus, UniProt P51577); assay: Antagonist activity against recombinant rat P2X purinoceptor 4 (P2X4) at 30 uM, expressed in Xenopus oocytes; format: functional, cell-based, Oocyte
# T8 sequence (P51577 whole entry): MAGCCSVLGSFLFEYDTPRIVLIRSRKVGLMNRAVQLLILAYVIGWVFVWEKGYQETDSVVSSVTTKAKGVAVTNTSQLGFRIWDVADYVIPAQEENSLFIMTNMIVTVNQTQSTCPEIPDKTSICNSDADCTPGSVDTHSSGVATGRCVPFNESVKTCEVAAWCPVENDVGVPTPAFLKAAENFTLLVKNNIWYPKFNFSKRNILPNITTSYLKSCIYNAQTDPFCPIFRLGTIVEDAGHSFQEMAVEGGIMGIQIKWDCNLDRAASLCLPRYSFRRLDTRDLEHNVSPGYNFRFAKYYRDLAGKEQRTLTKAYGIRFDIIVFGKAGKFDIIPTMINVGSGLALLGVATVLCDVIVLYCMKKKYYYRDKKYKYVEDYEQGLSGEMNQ
# P2X purinoceptor 2 = P2X purinoceptor 2 (Homo sapiens, UniProt Q9UBL9); assay: The compound was evaluated for antagonist activity against recombinant human receptor P2X purinoceptor 2 (P2X2 ); format: functional
# Sequence of P2X purinoceptor 2 (Q9UBL9 whole entry): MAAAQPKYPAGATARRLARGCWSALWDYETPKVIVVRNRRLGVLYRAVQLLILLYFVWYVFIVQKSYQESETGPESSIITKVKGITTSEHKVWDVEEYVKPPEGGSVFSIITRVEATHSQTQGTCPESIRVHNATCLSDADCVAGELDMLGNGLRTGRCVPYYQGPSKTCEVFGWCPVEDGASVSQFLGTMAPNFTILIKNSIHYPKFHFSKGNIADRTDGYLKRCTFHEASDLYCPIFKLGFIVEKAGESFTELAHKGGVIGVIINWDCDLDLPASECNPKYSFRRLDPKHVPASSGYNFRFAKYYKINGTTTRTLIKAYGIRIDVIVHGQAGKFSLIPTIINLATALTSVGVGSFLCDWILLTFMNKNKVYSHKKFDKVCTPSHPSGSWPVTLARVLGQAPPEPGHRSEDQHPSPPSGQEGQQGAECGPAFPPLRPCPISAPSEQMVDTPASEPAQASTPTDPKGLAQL
# Sequence of P2Y purinoceptor 2 (P41231 whole entry): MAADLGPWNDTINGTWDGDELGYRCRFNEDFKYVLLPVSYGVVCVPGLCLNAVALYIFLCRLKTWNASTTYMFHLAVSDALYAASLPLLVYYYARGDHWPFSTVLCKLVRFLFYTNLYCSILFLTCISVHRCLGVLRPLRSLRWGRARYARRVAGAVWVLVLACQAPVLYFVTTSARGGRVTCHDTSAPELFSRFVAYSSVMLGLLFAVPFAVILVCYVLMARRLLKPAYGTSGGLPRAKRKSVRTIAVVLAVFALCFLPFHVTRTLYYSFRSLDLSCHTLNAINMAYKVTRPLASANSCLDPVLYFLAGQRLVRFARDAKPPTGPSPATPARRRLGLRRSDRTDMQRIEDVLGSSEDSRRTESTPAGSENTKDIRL
# Sequence of P2X purinoceptor 6 (P51579 whole entry): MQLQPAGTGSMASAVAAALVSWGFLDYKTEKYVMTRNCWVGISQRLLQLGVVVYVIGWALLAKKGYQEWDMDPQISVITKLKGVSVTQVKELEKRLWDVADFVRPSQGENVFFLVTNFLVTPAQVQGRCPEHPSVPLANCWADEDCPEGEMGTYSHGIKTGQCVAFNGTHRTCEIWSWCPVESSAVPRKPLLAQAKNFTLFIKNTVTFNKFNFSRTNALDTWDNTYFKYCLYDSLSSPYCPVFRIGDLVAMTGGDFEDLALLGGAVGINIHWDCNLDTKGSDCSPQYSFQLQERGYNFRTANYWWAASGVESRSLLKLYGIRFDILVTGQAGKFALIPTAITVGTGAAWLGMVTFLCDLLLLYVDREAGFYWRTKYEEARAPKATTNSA
# Sequence of P2Y purinoceptor 12 (Q9EPX4 whole entry): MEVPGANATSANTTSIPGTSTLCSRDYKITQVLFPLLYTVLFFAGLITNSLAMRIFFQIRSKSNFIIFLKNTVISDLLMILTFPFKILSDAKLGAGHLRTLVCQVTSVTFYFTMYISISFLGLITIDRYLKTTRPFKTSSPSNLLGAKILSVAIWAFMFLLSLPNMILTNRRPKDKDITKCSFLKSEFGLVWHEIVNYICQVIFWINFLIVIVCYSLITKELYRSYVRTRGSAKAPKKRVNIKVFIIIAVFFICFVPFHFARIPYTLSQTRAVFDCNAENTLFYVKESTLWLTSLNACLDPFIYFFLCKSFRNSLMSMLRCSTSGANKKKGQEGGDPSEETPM
# Sequence of P2Y purinoceptor 6 (Q15077 whole entry): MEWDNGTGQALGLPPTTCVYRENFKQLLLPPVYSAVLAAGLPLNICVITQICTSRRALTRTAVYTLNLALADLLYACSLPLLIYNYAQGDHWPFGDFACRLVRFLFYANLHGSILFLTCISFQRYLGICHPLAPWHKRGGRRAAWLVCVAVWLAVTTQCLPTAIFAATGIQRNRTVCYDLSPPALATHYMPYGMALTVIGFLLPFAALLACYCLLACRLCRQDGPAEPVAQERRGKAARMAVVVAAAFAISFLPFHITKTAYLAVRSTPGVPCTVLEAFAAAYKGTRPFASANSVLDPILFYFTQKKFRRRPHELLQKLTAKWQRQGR
# Sequence of P2Y purinoceptor 1 (P47900 whole entry): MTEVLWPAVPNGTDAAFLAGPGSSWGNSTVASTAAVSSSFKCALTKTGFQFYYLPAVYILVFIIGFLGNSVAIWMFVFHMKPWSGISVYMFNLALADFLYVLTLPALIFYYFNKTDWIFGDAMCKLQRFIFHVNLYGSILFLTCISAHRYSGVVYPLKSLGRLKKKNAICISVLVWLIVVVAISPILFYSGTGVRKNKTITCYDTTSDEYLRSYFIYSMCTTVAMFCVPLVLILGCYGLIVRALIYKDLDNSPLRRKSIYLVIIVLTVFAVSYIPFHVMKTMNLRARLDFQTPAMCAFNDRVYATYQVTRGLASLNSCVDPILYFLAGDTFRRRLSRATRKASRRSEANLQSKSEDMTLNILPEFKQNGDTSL
# Sequence of P2Y purinoceptor 4 (O35811 whole entry): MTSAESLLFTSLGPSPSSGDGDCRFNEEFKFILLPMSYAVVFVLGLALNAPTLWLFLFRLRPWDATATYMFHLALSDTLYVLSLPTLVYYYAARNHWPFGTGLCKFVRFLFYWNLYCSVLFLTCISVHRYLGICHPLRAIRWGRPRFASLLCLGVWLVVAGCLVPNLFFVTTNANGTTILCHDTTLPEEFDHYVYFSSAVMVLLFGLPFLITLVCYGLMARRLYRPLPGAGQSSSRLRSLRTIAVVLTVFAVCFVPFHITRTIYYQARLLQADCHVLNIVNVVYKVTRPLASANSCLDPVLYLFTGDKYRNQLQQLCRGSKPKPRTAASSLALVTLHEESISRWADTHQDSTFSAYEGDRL
structure (smiles),measurement,setting,value
Cc1nc(/N=N/c2cc(S(=O)(=O)O)ccc2S(=O)(=O)O)c(COP(=O)(O)O)c(C=O)c1O [ISOPPADS],IC50,P2X purinoceptor 3 [1],0.084 µM
same,EC50,P2X purinoceptor 1 [2],0.043 µM
CN([C@@H](Cc1ccc(OS(=O)(=O)c2cccc3cnccc23)cc1)C(=O)N1CCN(c2ccccc2)CC1)S(=O)(=O)c1cccc2cnccc12,EC50,P2X purinoceptor 7,0.034 µM
same,EC50,P2X purinoceptor 4 [3],100 µM
O=c1ccn([C@@H]2O[C@H](COP(=O)(O)OP(=O)(O)OP(=O)(O)O)[C@@H](O)[C@H]2O)c(=O)[nH]1 [URIDINE TRIPHOSPHATE],EC50,P2Y purinoceptor 11,> 100 µM
same,EC50,P2Y purinoceptor 4,2.6 µM
same,EC50,P2Y purinoceptor 1,> 100 µM
same,EC50,P2Y purinoceptor 6,6 µM
same,EC50,P2Y purinoceptor 2,0.14 µM
Nc1ncnc2c1ncn2[C@@H]1O[C@H](COP(=O)(O)OP(=O)(O)O)[C@@H](O)[C@H]1O [ADENOSINE DIPHOSPHATE],EC50,P2X purinoceptor 3 [4],> 100 µM
same,EC50,P2Y purinoceptor 12,0.069 µM
same,EC50,P2Y purinoceptor 2,> 100 µM
same,EC50,P2X purinoceptor 6,11 µM
same,EC50,P2X purinoceptor 5,18 µM
same,EC50,P2X purinoceptor 1 [5],10 µM
same,EC50,P2X purinoceptor 4 [6],28 µM
same,EC50,P2X purinoceptor 2,> 100 µM
